Test results as given in US4118487A, “Substituted azol-1-ylmethanes” (Bayer Aktiengesellschaft, priority 1974, dated 1978).
Converted amounts (≈) assume the structure as drawn. Like-named read-outs stand apart in the source and are kept apart here.

Assays:
bacteria = experiment: Antibacterial activity (general statement); assay type: cell-based
[1] = test system: Trichophyton mentagrophvtes; experiment: Antimycotic activity in vitro, series dilution test (MIC); assay type: cell-based, Trichophyton mentagrophytes; conditions: 28° C., 24-96 hours, Sabouraud's milieu d'epreuve, 5 × 10^4 germs/ml, read-out: MIC values in γ/ml of nutrient medium, for Trichophyton mentagrophvtes
Protocol: (§1) The in vitro tests were carried out in a series dilution test with germ inocula averaging 5 × 10^4 germs/ml of substrate. The nutrient media used were
(§2) (a) for dermatophytes and molds Sabouraud's milieu d'epreuve,
(§3) The incubation temperatures were 28° C. for dermatophytes, yeasts and molds and 37° C. for biphase fungi; the incubation time was 24-96 hours.

Histoplasma = experiment: microbe, parasite or virus in culture; assay type: cell-based; conditions: read-out: MIC values in γ/ml of nutrient medium, for Histoplasma
Pityrosporum ovale = experiment: Antimycotic activity in vitro, series dilution test (MIC); assay type: cell-based; conditions: Malassezia furfur; Abbe medium, 24-96 hours, 5 × 10^4 germs/ml; read-out: MIC values in γ/ml of nutrient medium, for Pityrosporum ovale
Protocol: The in vitro tests were carried out in a series dilution test with germ inocula averaging 5 × 10^4 germs/ml of substrate. The nutrient media used were (c) for Pytrosporum ovale: Abbe medium, and The incubation temperatures were 28° C. for dermatophytes, yeasts and molds and 37° C. for biphase fungi; the incubation time was 24-96 hours.

Candida albicans = experiment: as above; assay type: cell-based; conditions: read-out: MIC values in γ/ml of nutrient medium, for Candida albicans
Protocol: as §1
(b) for yeasts: meat extract-glucose bouillon,
as §3

penicillium = experiment: as above; assay type: cell-based; conditions: 28° C., 24-96 hours, Sabouraud's milieu d'epreuve, 5 × 10^4 germs/ml, read-out: MIC values in γ/ml of nutrient medium, for penicillium
Protocol: as §1, §2, §3

Aspergillus fumigatus = experiment: as above; assay type: cell-based; conditions: read-out: MIC values in γ/ml of nutrient medium, for Aspergillus fumigatus
Protocol: as §1, §2, §3

Streptococcus pyogenes W = experiment: Antibacterial activity in vitro, plast test (MIC); assay type: cell-based; conditions: agar plate, 5 × 10^3 /plate, pH 7.4; in µg/mL
Protocol: (§4) The in vitro tests were carried out by the plast test. In this, the bacteria were cast with the agar, at a concentration of 5 × 10^3 /plate. […]

[2] = test system: Staphylococcus aureus 133; experiment: Antibacterial activity in vitro, plast test (MIC); assay type: cell-based; conditions: agar plate, 5 × 10^3 /plate, pH 7.4
Protocol: as §4

fungi = conditions: Belgian Pat. No. 720,801; cited from earlier work
Klebsiella 8085 = experiment: Antibacterial activity in vitro, plast test (MIC); assay type: cell-based; conditions: agar plate, 5 × 10^3 /plate, pH 7.4
Protocol: as §4

E-Coli A 261 = experiment: Antibacterial activity in vitro, plast test (MIC); assay type: cell-based; conditions: agar plate, 5 × 10^3 /plate, pH 7.4
Protocol: as §4

Pseudomonas aerug. B = experiment: Antibacterial activity in vitro, plast test (MIC); assay type: cell-based; conditions: agar plate, 5 × 10^3 /plate, pH 7.4
Protocol: as §4

Proteus vulgaris 1017 = experiment: Antibacterial activity in vitro, plast test (MIC); assay type: cell-based; conditions: agar plate, 5 × 10^3 /plate, pH 7.4
Protocol: as §4

[3] = 28° C., 24-96 hours, meat extract-glucose bouillon, 5 × 10^4 germs/ml
[4] = 28° C., 24-96 hours, Sabouraud's milieu d'epreuve, 5 × 10^4 germs/ml

## COC1=CC(=O)C[C@@H](C)[C@]12Oc1c(Cl)c(OC)cc(OC)c1C2=O [griseofulvin]
bacteria
  antibacterial activity: not present

## Clc1ccccc1C(c1ccc(-c2ccccc2)cc1)n1ccnc1 (centres unmarked) [drawing 10]
[1]
  MIC: < 1 µg/mL
Histoplasma
  MIC: 4 µg/mL (≈ 11.6 µM)
Pityrosporum ovale
  MIC: 1 µg/mL (≈ 2.9 µM)
Candida albicans; [3]
  MIC: 2 µg/mL (≈ 5.8 µM)
penicillium
  MIC: < 0.1 µg/mL
Aspergillus fumigatus; [4]
  MIC: < 0.1 µg/mL

## Clc1ccc(C(c2ccc(-c3ccccc3)cc2)n2ccnc2)cc1 (centres unmarked)
Streptococcus pyogenes W
  MIC values for Streptococcus pyogenes W: 10
[2]
  MIC values for Staphylococcus aureus 133: 8 µg/mL

## Clc1ccccc1C(c1ccccc1)(c1ccccc1)n1ccnc1 [clotrimazol, bisphenyl-(2-chlorophenyl)-imidazol-1-ylmethane]
fungi
  antimycotic action: good antimycotic action

## C[C@@H]1[C@H](O)[C@@H](C)/C=C/C=C/CC/C=C/C=C/C=C/C=C/C(O[C@H]2O[C@H](C)[C@@H](O)[C@H](N)[C@@H]2O)CC2O[C@](O)(CC(O)C(O)CCC(O)CC(O)CC(O)CC(=O)O[C@H]1C)CC(O)C2C(=O)O (some centres unmarked) [nystatin]
bacteria
  antibacterial activity: not present

## Clc1ccccc1C(c1ccc(-c2ccccc2)cc1)n1ccnc1 (centres unmarked) [drawing 14]
Klebsiella 8085
  MIC values for Klebsiella 8085: 128 µg/mL
E-Coli A 261
  MIC values for E-Coli A 261: 256 µg/mL
Pseudomonas aerug. B
  MIC values for Pseudomonas aerug. B: 256 µg/mL
Streptococcus pyogenes W
  MIC values for Streptococcus pyogenes W: 128
Proteus vulgaris 1017
  MIC values for Proteus vulgaris 1017: 128 µg/mL
[2]
  MIC values for Staphylococcus aureus 133: 8 µg/mL

## c1ccc(-c2ccc(C(c3ccccc3)n3ccnc3)cc2)cc1 (centres unmarked) [drawing 9]
[1]
  MIC: < 1 µg/mL
Histoplasma
  MIC: 4 µg/mL (≈ 12.9 µM)
Pityrosporum ovale
  MIC: 1 µg/mL (≈ 3.22 µM)
Candida albicans
  MIC: 4 µg/mL (≈ 12.9 µM)
penicillium
  MIC: < 0.1 µg/mL
Aspergillus fumigatus
  MIC: < 0.1 µg/mL

## C[C@@H]1C/C=C/C=C/C=C/C=C/[C@H](O[C@@H]2O[C@H](C)[C@@H](O)[C@H](N)[C@@H]2O)C[C@@H]2O[C@](O)(C[C@@H](O)C[C@H]3O[C@@H]3/C=C/C(=O)O1)C[C@H](O)[C@H]2C(=O)O [pimaricin]
bacteria
  antibacterial activity: not present

## Clc1ccccc1C(c1ccc(Oc2ccccc2)cc1)n1ccnc1 (centres unmarked)
[1]
  MIC: 16 µg/mL (≈ 44.3 µM)
Histoplasma
  MIC: 2 µg/mL (≈ 5.54 µM)
Pityrosporum ovale
  MIC: 1 µg/mL (≈ 2.77 µM)
Candida albicans; [3]
  MIC: 8 µg/mL (≈ 22.2 µM)
penicillium
  MIC: < 0.1 µg/mL
Aspergillus fumigatus; [4]
  MIC: < 0.1 µg/mL

## c1ccc(-c2ccc(C(c3ccccc3)n3ccnc3)cc2)cc1 (centres unmarked) [drawing 13]
Klebsiella 8085
  MIC values for Klebsiella 8085: 128 µg/mL
Streptococcus pyogenes W
  MIC values for Streptococcus pyogenes W: 10-20
Proteus vulgaris 1017
  MIC values for Proteus vulgaris 1017: 128 µg/mL
[2]
  MIC values for Staphylococcus aureus 133: 8 µg/mL

## CC(C)(C)c1ccc(C(c2ccc(-c3ccccc3)cc2)n2ccnc2)cc1 (centres unmarked)
Klebsiella 8085
  MIC values for Klebsiella 8085: 128 µg/mL
Pseudomonas aerug. B
  MIC values for Pseudomonas aerug. B: 256 µg/mL
Streptococcus pyogenes W
  MIC values for Streptococcus pyogenes W: 128
Proteus vulgaris 1017
  MIC values for Proteus vulgaris 1017: 128 µg/mL
[2]
  MIC values for Staphylococcus aureus 133: 8 µg/mL

## Clc1cccc(C(c2ccc(-c3ccccc3)cc2)n2ccnc2)c1 (centres unmarked) [drawing 16]
Streptococcus pyogenes W
  MIC values for Streptococcus pyogenes W: 128
[2]
  MIC values for Staphylococcus aureus 133: 8 µg/mL

## Clc1cccc(C(c2ccc(-c3ccccc3)cc2)n2ccnc2)c1 (centres unmarked) [drawing 11]
[1]
  MIC: 2 µg/mL (≈ 5.8 µM)
Histoplasma
  MIC: 2 µg/mL (≈ 5.8 µM)
Pityrosporum ovale
  MIC: 1 µg/mL (≈ 2.9 µM)
Candida albicans; [3]
  MIC: 1 µg/mL (≈ 2.9 µM)
penicillium
  MIC: < 0.1 µg/mL
Aspergillus fumigatus; [4]
  MIC: < 0.1 µg/mL
